In patent US8846933B2, “N-link hydroxamic acid derivatives useful as antibacterial agents” (Pfizer Inc., priority 2009, dated 2014):

Assays:
[1] = system: Escherichia coli EC-1: VOGEL, mouse virulent; assay: MIC determination (CLSI), strain EC-1; format: cell-based; details: strain EC-1; unit assumed
In short: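 The mouse-virulent VOGEL isolate of E. coli, EC-1, served as test organism. Minimum inhibitory concentration was measured by CLSI dilution methodology (M7-A7; M100-S18 standards).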

[2] = system: Pseudomonas aeruginosa UI-18: Wild-type (PA-7); assay: MIC determination (CLSI), strain PA-7; format: cell-based; details: strain PA-7; unit assumed
In short: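 Strain tested was P. aeruginosa UI-18, a wild-type isolate labelled PA-7. Minimum inhibitory concentrations followed CLSI dilution methodology for aerobically growing bacteria (M7-A7, M100-S18).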

SMILES: C[C@@](CCn1ccc(-c2ccc(-c3cscn3)cc2)cc1=O)(C(=O)NO)S(C)(=O)=O [Example 405, (2R)-N-hydroxy-2-methyl-2-(methylsulfonyl)-4-{2-oxo-4-[4-(1,3-thiazol-4-yl)phenyl]pyridin-1(2H)-yl}butanamide]
- EC-1 (MIC) [1]: 0.125 µg/mL
- PA-7 (MIC) [2]: 1 µg/mL

SMILES: C[C@@](CCn1ccc(-c2ccc(-c3cncs3)cc2)cc1=O)(C(=O)NO)S(C)(=O)=O [Example 406, (2R)-N-hydroxy-2-methyl-2-(methylsulfonyl)-4-{2-oxo-4-[4-(1,3-thiazol-5-yl)phenyl]pyridin-1(2H)-yl}butanamide]
- EC-1 (MIC) [1]: 0.25 µg/mL
- PA-7 (MIC) [2]: 0.5 µg/mL

SMILES: C[C@@](CCn1ccc(-c2ccc(-n3ncc(O)n3)cc2)cc1=O)(C(=O)NO)S(C)(=O)=O [Example 407, (2R)-N-hydroxy-4-{4-[4-(4-hydroxy-2H-1,2,3-triazol-2-yl)phenyl]-2-oxopyridin-1(2H)-yl}-2-methyl-2-(methylsulfonyl)butanamide]
- EC-1 (MIC) [1]: 16 µg/mL
- PA-7 (MIC) [2]: 32 µg/mL

SMILES: C[C@@](CCn1ccc(-c2ccc(-c3cc(CO)no3)cc2)cc1=O)(C(=O)NO)S(C)(=O)=O [Example 408, (2R)-N-hydroxy-4-[4-{4-[3-(hydroxymethyl)isoxazol-5-yl]phenyl}-2-oxopyridin-1(2H)-yl]-2-methyl-2-(methylsulfonyl)butanamide]
- EC-1 (MIC) [1]: 8 µg/mL
- PA-7 (MIC) [2]: 8 µg/mL

SMILES: CN(C)c1ncc(-c2ccc(-c3ccn(CC[C@](C)(C(=O)NO)S(C)(=O)=O)c(=O)c3)cc2)cn1 [Example 409, (2R)-4-[4-{4-[2-(dimethylamino)pyrimidin-5-yl]phenyl}-2-oxopyridin-1(2H)-yl]-N-hydroxy-2-methyl-2-(methylsulfonyl)butanamide]
- EC-1 (MIC) [1]: 0.5 µg/mL
- PA-7 (MIC) [2]: 2 µg/mL

SMILES: COc1ncc(-c2ccc(-c3ccn(CC[C@](C)(C(=O)NO)S(C)(=O)=O)c(=O)c3)cc2)cn1 [Example 410, (2R)-N-hydroxy-4-{4-[4-(2-methoxypyrimidin-5-yl)phenyl]-2-oxopyridin-1(2H)-yl}-2-methyl-2-(methylsulfonyl)butanamide]
- EC-1 (MIC) [1]: 0.5 µg/mL
- PA-7 (MIC) [2]: 1 µg/mL

SMILES: C[C@@](CCn1ccc(-c2ccc(-c3ccno3)cc2)cc1=O)(C(=O)NO)S(C)(=O)=O [Example 411, (2R)-N-hydroxy-4-[4-(4-isoxazol-5-ylphenyl)-2-oxopyridin-1(2H)-yl]-2-methyl-2-(methylsulfonyl)butanamide]
- EC-1 (MIC) [1]: 0.5 µg/mL
- PA-7 (MIC) [2]: 0.5 µg/mL

SMILES: Cc1c(-c2ccc(C#N)cc2F)ccn(CC[C@](C)(C(=O)NO)S(C)(=O)=O)c1=O [Example 412, (2R)-4-[4-(4-cyano-2-fluorophenyl)-3-methyl-2-oxopyridin-1(2H)-yl]-N-hydroxy-2-methyl-2-(methylsulfonyl)butanamide]
- EC-1 (MIC) [1]: 8 µg/mL
- PA-7 (MIC) [2]: 4 µg/mL

SMILES: Cc1c(-c2cccc(Cl)c2F)ccn(CC[C@](C)(C(=O)NO)S(C)(=O)=O)c1=O [Example 413, (2R)-4-[4-(3-chloro-2-fluorophenyl)-3-methyl-2-oxopyridin-1(2H)-yl]-N-hydroxy-2-methyl-2-(methylsulfonyl)butanamide]
- EC-1 (MIC) [1]: 2 µg/mL
- PA-7 (MIC) [2]: 2 µg/mL

SMILES: Cc1c(-c2cccc(Cl)c2Cl)ccn(CC[C@](C)(C(=O)NO)S(C)(=O)=O)c1=O [Example 414, (2R)-4-[4-(2,3-dichlorophenyl)-3-methyl-2-oxopyridin-1(2H)-yl]-N-hydroxy-2-methyl-2-(methylsulfonyl)butanamide]
- EC-1 (MIC) [1]: 2 µg/mL
- PA-7 (MIC) [2]: 8 µg/mL

SMILES: C[C@@](CCn1ccc(-c2ccc(-c3ccc(C#N)nc3)cc2)cc1=O)(C(=O)NO)S(C)(=O)=O [Example 415]
- EC-1 (MIC) [1]: 1 µg/mL
- PA-7 (MIC) [2]: 2 µg/mL

SMILES: Cc1nnn(-c2ccc(-c3ccn(CC[C@](C)(C(=O)NO)S(C)(=O)=O)c(=O)c3)cc2)c1C [Example 416, (2R)-4-{4-[4-(4,5-dimethyl-1H-1,2,3-triazol-1-yl)phenyl]-2-oxopyridin-1(2H)-yl}-N-hydroxy-2-methyl-2-(methylsulfonyl)butanamide]
- EC-1 (MIC) [1]: 64 µg/mL
- PA-7 (MIC) [2]: 32 µg/mL

SMILES: C[C@@](CCn1ccc(-c2ccc(-c3ncno3)cc2)cc1=O)(C(=O)NO)S(C)(=O)=O [Example 417, (2R)-N-hydroxy-2-methyl-2-(methylsulfonyl)-4-{4-[4-(1,2,4-oxadiazol-5-yl)phenyl]-2-oxopyridin-1(2H)-yl}butanamide]
- EC-1 (MIC) [1]: 8 µg/mL
- PA-7 (MIC) [2]: 64 µg/mL

SMILES: C[C@@](CCn1ccc(-c2ccc(CO)nc2)cc1=O)(C(=O)NO)S(C)(=O)=O [Example 418, (2R)-N-hydroxy-4-[6-(hydroxymethyl)-2′-oxo-3,4′-bipyridin-1′(2′H)-yl]-2-methyl-2-(methylsulfonyl)butanamide]
- EC-1 (MIC) [1]: > 64 µg/mL
- PA-7 (MIC) [2]: 64 µg/mL

SMILES: C[C@@](CCn1ccc(-c2ccc(-c3ncns3)cc2)cc1=O)(C(=O)NO)S(C)(=O)=O [Example 419, (2R)-N-hydroxy-2-methyl-2-(methylsulfonyl)-4-{2-oxo-4-[4-(1,2,4-thiadiazol-5-yl)phenyl]pyridin-1(2H)-yl}butanamide]
- EC-1 (MIC) [1]: 0.25 µg/mL
- PA-7 (MIC) [2]: 1 µg/mL

SMILES: Cc1cnc(N2CC=C(c3ccn(CC[C@](C)(C(=O)NO)S(C)(=O)=O)c(=O)c3)CC2)nc1 [Example 420, (2R)-N-hydroxy-2-methyl-4-[1′-(5-methylpyrimidin-2-yl)-2-oxo-1′,2′,3′,6′-tetrahydro-4,4′-bipyridin-1(2H)-yl]-2-(methylsulfonyl)butanamide]
- EC-1 (MIC) [1]: 4 µg/mL
- PA-7 (MIC) [2]: 8 µg/mL

SMILES: C[C@@](CCn1ccc(-c2ccc(-n3cnnn3)cc2)cc1=O)(C(=O)NO)S(C)(=O)=O [Example 421, (2R)-N-hydroxy-2-methyl-2-(methylsulfonyl)-4-{2-oxo-4-[4-(1H-tetrazol-1-yl)phenyl]pyridin-1(2H)-yl}butanamide]
- EC-1 (MIC) [1]: > 64 µg/mL
- PA-7 (MIC) [2]: 64 µg/mL

SMILES: Cc1cccc(-c2ccc(-c3ccn(CC[C@](C)(C(=O)NO)S(C)(=O)=O)c(=O)c3)cc2)n1 [Example 422, (2R)-N-hydroxy-2-methyl-4-{4-[4-(6-methylpyridin-2-yl)phenyl]-2-oxopyridin-1(2H)-yl}-2-(methylsulfonyl)butanamide]
- EC-1 (MIC) [1]: 0.5 µg/mL
- PA-7 (MIC) [2]: 4 µg/mL

SMILES: C[C@@](CCn1ccc(-c2ccc(-c3cncnc3)cc2)cc1=O)(C(=O)NO)S(C)(=O)=O [Example 423]
- EC-1 (MIC) [1]: 1 µg/mL
- PA-7 (MIC) [2]: 4 µg/mL

SMILES: C[C@@](CCn1ccc(-c2ccc(Oc3ncccn3)cc2)cc1=O)(C(=O)NO)S(C)(=O)=O [Example 424, (2R)-N-hydroxy-2-methyl-2-(methylsulfonyl)-4-{2-oxo-4-[4-(pyrimidin-2-yloxy)phenyl]pyridin-1(2H)-yl}butanamide]
- EC-1 (MIC) [1]: 4 µg/mL
- PA-7 (MIC) [2]: 4 µg/mL

SMILES: C[C@@](CCn1ccc(-c2ccc(Oc3ccccc3C#N)cc2)cc1=O)(C(=O)NO)S(C)(=O)=O [Example 426, (2R)-4-{4-[4-(2-cyanophenoxy)phenyl]-2-oxopyridin-1(2H)-yl}-N-hydroxy-2-methyl-2-(methylsulfonyl)butanamide]
- EC-1 (MIC) [1]: 0.25 µg/mL
- PA-7 (MIC) [2]: 1 µg/mL

SMILES: C[C@@](CCn1ccc(-c2ccc(Oc3ncccc3C#N)cc2)cc1=O)(C(=O)NO)S(C)(=O)=O [Example 427, (2R)-4-[4-{4-[(3-cyanopyridin-2-yl)oxy]phenyl}-2-oxopyridin-1(2H)-yl]-N-hydroxy-2-methyl-2-(methylsulfonyl)butanamide]
- EC-1 (MIC) [1]: 2 µg/mL
- PA-7 (MIC) [2]: 2 µg/mL

SMILES: C[C@@](CCn1ccc(-c2ccc(Oc3cc(Cl)ccn3)cc2)cc1=O)(C(=O)NO)S(C)(=O)=O [Example 428, (2R)-4-[4-{4-[(4-chloropyridin-2-yl)oxy]phenyl}-2-oxopyridin-1(2H)-yl]-N-hydroxy-2-methyl-2-(methylsulfonyl)butanamide]
- EC-1 (MIC) [1]: 0.125 µg/mL
- PA-7 (MIC) [2]: 1 µg/mL

SMILES: C[C@@](CCn1ccc(-c2ccc(Oc3ccc(Cl)cn3)cc2)cc1=O)(C(=O)NO)S(C)(=O)=O [Example 430, (2R)-4-[4-{4-[(5-chloropyridin-2-yl)oxy]phenyl}-2-oxopyridin-1(2H)-yl]-N-hydroxy-2-methyl-2-(methylsulfonyl)butanamide]
- EC-1 (MIC) [1]: 0.125 µg/mL
- PA-7 (MIC) [2]: 2 µg/mL

SMILES: C[C@@](CCn1ccc(-c2ccc(Oc3ccccn3)cc2)cc1=O)(C(=O)NO)S(C)(=O)=O [Example 436, (2R)-N-hydroxy-2-methyl-2-(methylsulfonyl)-4-{2-oxo-4-[4-(pyridin-2-yloxy)phenyl]pyridin-1(2H)-yl}butanamide]
- EC-1 (MIC) [1]: 0.5 µg/mL
- PA-7 (MIC) [2]: 2 µg/mL

SMILES: C[C@@](CCn1ccc(-c2ccc(Oc3nccc4occc34)cc2)cc1=O)(C(=O)NO)S(C)(=O)=O [Example 437, (2R)-4-{4-[4-(furo[3,2-c]pyridin-4-yloxy)phenyl]-2-oxopyridin-1(2H)-yl}-N-hydroxy-2-methyl-2-(methylsulfonyl)butanamide]
- EC-1 (MIC) [1]: 0.25 µg/mL
- PA-7 (MIC) [2]: 4 µg/mL

SMILES: Cc1ccc(C#N)c(Oc2ccc(-c3ccn(CC[C@](C)(C(=O)NO)S(C)(=O)=O)c(=O)c3)cc2)n1 [Example 438, (2R)-4-[4-{4-[(3-cyano-6-methylpyridin-2-yl)oxy]phenyl}-2-oxopyridin-1(2H)-yl]-N-hydroxy-2-methyl-2-(methylsulfonyl)butanamide]
- EC-1 (MIC) [1]: 4 µg/mL
- PA-7 (MIC) [2]: 8 µg/mL

SMILES: C[C@@](CCn1ccc(-c2ccc(Oc3ncccc3Cl)cc2)cc1=O)(C(=O)NO)S(C)(=O)=O [Example 440, (2R)-4-[4-{4-[(3-chloropyridin-2-yl)oxy]phenyl}-2-oxopyridin-1(2H)-yl]-N-hydroxy-2-methyl-2-(methylsulfonyl)butanamide]
- EC-1 (MIC) [1]: 0.06 µg/mL
- PA-7 (MIC) [2]: 2 µg/mL

SMILES: C[C@@](CCn1ccc(-c2ccc(Oc3cccnc3C#N)cc2)cc1=O)(C(=O)NO)S(C)(=O)=O [Example 442, (2R)-4-[4-{4-[(2-cyanopyridin-3-yl)oxy]phenyl}-2-oxopyridin-1(2H)-yl]-N-hydroxy-2-methyl-2-(methylsulfonyl)butanamide]
- EC-1 (MIC) [1]: 4 µg/mL
- PA-7 (MIC) [2]: 4 µg/mL

SMILES: C[C@@](CCn1ccc(-c2ccc(Oc3ccnc4ccccc34)cc2)cc1=O)(C(=O)NO)S(C)(=O)=O [Example 444]
- EC-1 (MIC) [1]: 0.125 µg/mL
- PA-7 (MIC) [2]: 2 µg/mL
